Assay results: article PMC6660996 (Bioorganic & medicinal chemistry, 2019)
Like-named read-outs stand apart in the source and are kept apart here.

What was measured:
T. gondii (tachyzoites) [1] = details: cited from earlier work; for T. gondii growth ED50: tachyzoites, already published data, ref 47-55 (see b12)
[2] = tested on: hypervirulent RH strain of T. gondii; details: cited from earlier work
T. cruzi (amastigotes) = experiment: T. cruzi amastigote assays; type: cell-based; details: Trypanosoma cruzi
T. gondii (tachyzoites) [3] = experiment: T. gondii tachyzoites assays; type: cell-based; details: Toxoplasma gondii, read-out: T. gondii cells ED50, tachyzoites; Table 3
[4] = read-out: T. cruzi cells ED50, amastigotes, Table 3

Row | SMILES | T. gondii growth ED50 (T. gondii (tachyzoites) [1]) | IC50 (T. cruzi (amastigotes); [4]) | further results
1 | CCCCCCCCC(F)(P(=O)(O)O)P(=O)(O)O [Compound 10] | 2.67 µM |  | 
2 | CCCCCCCCCC(F)(P(=O)(O)O)P(=O)(O)O [Compound 11] | > 10.0 µM |  | 
3 | CCCCCCNCC(P(=O)(O)O)P(=O)(O)O [Compound 12] | 9.4 µM |  | 
4 | CCCCCCCNCC(P(=O)(O)O)P(=O)(O)O [Compound 13] | > 50.0 µM |  | 
5 | CCCCCCCCCCCCNCC(P(=O)(O)O)P(=O)(O)O [Compound 14] | 6.23 µM |  | 
6 | CCCCCCCCNCC(O)(P(=O)(O)O)P(=O)(O)O [Compound 15] | 2.0 µM |  | 
7 | CCCCCCCSCC(P(=O)(O)O)P(=O)(O)O [Compound 16] | 0.97 µM |  | effect in combination with statins in in vivo assays [2]: strong synergistic effect
8 | CCCCCCCCCCSCC(P(=O)(O)O)P(=O)(O)O [Compound 17] | 1.8 µM |  | 
9 | CCCCCCCCCCS(=O)(=O)CC(P(=O)(O)O)P(=O)(O)O [Compound 18] | 0.11 µM |  | in vitro activity against T. gondii ED50 (T. gondii (tachyzoites) [1]; tachyzoites proliferation): 0.1 µM
10 | CCCCCCCC[S+](C)CC(P(=O)(O)O)P(=O)(O)O.F[B-](F)(F)F (stereo not shown) [Compound 19] | 7.0 µM |  | 
11 | CCCNC(P(=O)(O)O)P(=O)(O)O [Compound 21, 1-n-Propylaminomethyl-1,1-bisphosphonic acid] |  |  | IC50 (T. cruzi (amastigotes); read-out: T. cruzi cells ED50): > 10 µM
12 | CCCCNC(P(=O)(O)O)P(=O)(O)O [Compound 22, 1-n-Butylaminomethyl-1,1-bisphosphonic acid] |  |  | IC50 (T. cruzi (amastigotes); read-out: T. cruzi cells ED50): > 10 µM
13 | CCCCCNC(P(=O)(O)O)P(=O)(O)O [Compound 23, 1-n-Pentylaminomethyl-1,1-bisphosphonic acid] |  | > 10 µM | 
14 | CCCCCCNC(P(=O)(O)O)P(=O)(O)O [Compound 24, 1-n-Hexylaminomethyl-1,1-bisphosphonic acid] |  | > 10 µM | 
15 | CCCCCCCNC(P(=O)(O)O)P(=O)(O)O [Compound 25, 1-n-Heptylaminomethyl-1,1-bisphosphonic acid] |  | > 10 µM | 
16 | CCCCCCCCNC(P(=O)(O)O)P(=O)(O)O [Compound 26, 1-n-Octylaminomethyl-1,1-bisphosphonic acid] |  | > 10 µM | 
17 | CCCCCCCCCNC(P(=O)(O)O)P(=O)(O)O [Compound 27, 1-n-Nonylaminomethyl-1,1-bisphosphonic acid] |  | > 10 µM | 
18 | CCCCCCCCCCNC(P(=O)(O)O)P(=O)(O)O [Compound 28, 1-n-Decylaminomethyl-1,1-bisphosphonic acid] |  | 5.3 µM | 
19 | O=P(O)(O)C(NC1CCCC1)P(=O)(O)O [Compound 30, (Cyclopentylamino)methyl-1,1-bisphosphonic acid] |  | > 10 µM | 
20 | O=P(O)(O)C(NC1CCCCC1)P(=O)(O)O [Compound 31, (Cyclohexylamino)methyl-1,1-bisphosphonic acid] |  | > 10 µM | 
21 | O=P(O)(O)C(NC1CCCCCC1)P(=O)(O)O [Compound 32, (Cycloheptylamino)methyl-1,1-bisphosphonic acid] |  | > 10 µM | 
22 | O=P(O)(O)C(N1CCCCC1)P(=O)(O)O [Compound 33, (Piperidin-1-yl)methyl-1,1-bisphosphonic acid] |  | > 10 µM | 
23 | O=P(O)(O)C(CNC1CCCC1)P(=O)(O)O [Compound 47, 1-[(Cyclopentylamino)ethyl] 1,1-bisphosphonic acid] |  | > 10 µM | 
24 | O=P(O)(O)C(CNC1CCCCCC1)P(=O)(O)O [Compound 48, 1-[(Cycloheptylamino)ethyl] 1,1-bisphosphonic acid] |  | > 10 µM | 
25 | CC1CCC(NCC(P(=O)(O)O)P(=O)(O)O)CC1 (stereo not shown) [Compound 49, 1-[(4-methylcyclohexylamino)ethyl] 1,1-bisphosphonic acid] |  | > 10 µM | 
26 | CCCCCCCCCCCS(=O)(=O)CC(P(=O)(O)O)P(=O)(O)O [Compound 56, 1-[(n-Undecylsulfonyl)ethyl]-1,1-biphosphonic acid] |  |  | IC50 (T. gondii (tachyzoites) [3]): 0.53 µM
